In a melting point compilation (Tetko et al.; mined from patent text by program, amines drawn as free bases though some values may be those of a salt):

melting point	SMILES
134 °C	N#Cc1ccc(COc2ccc(C(=O)NC[C@@H](C(=O)NO)N3CCCCC3)cc2)cc1
147 °C	O=C(O)C1CSC(c2ccccc2F)N1 (mixture of isomers)
180 to 182 °C	CC(C)(C)OC(=O)Nc1ccc2[nH]c(C(=O)OCc3ccccc3)cc2c1
149 to 153 °C	O=C(NO)c1ccc2c(c1)CCN(C(=O)NCc1ccccc1)C2
251 to 254 °C	O=C(O)c1ccc2c(ccn2Cc2cccc([N+](=O)[O-])c2)c1
143 °C	CC1=Cc2c(cccc2-c2cccc3ccccc23)C1
46 °C	c1ccc2c(c1)Cc1ccncc1N1OC(CN3CCOCC3)CC21 (stereo not drawn)
166 to 168 °C	Cc1cccc(C#CC2=CC(=NO)CCC2)n1
112 °C	O=C(O)c1c(Br)ccc(OC(F)(F)F)c1F
140 to 142 °C	O=C1CC(C(=O)O)N(C(=O)CCS)N1 (stereo not drawn)
234 to 236 °C	O=C(c1ccccc1)N1Cc2c(-c3noc(C4CC4)n3)ncn2-c2cccc(F)c21
148 to 150 °C	CCOC(=O)c1cc(-c2ccc(F)cc2)[nH]n1
115 to 116 °C	O=C(CCCN1CCN(c2cc(-c3ccc(F)cc3)c3c(n2)CCC3)CC1)c1ccc(F)cc1
176 to 177 °C	Cc1nc2ccccc2n2cnc(C(=O)OC(C)(C)C)c12
192 to 193 °C	Cc1c(C2CCN(Cc3ccc(Cl)cc3)CC2)n[nH]c1-c1ccccc1
144 to 145 °C	CC(=O)c1cc2c(cc1NC(=O)c1coc3ccccc13)OCO2
129 to 131 °C	COc1ccc(N(CC(=O)NCCC(=O)O)C(=O)c2ccc(Cl)cc2)cc1
115 to 116 °C	O=C(O)C[C@@H]1Cc2cccc3c2[C@@H](CCC3)C1 (relative stereo)
144 to 145 °C	O=C1C2CCCC2=Nc2ccccc2N1Cc1ccc(Cl)cc1Cl (stereo not drawn)
138 °C	COc1ccc2c(c1)CN(C(=O)OCc1ccccc1)CC(=O)N2
137 to 138 °C	C#Cc1cccc(Nc2ncnc3cc(OCCOC(C)=O)c(OCCOC(C)=O)cc23)c1
142 °C	CCC1N=C(C(N)=O)ON1S(=O)(=O)c1ccccc1Cl (stereo not drawn)
132 to 134 °C	CCOC(=O)c1c(N)n(C)c2ccccc12
226 to 228 °C	COC(=O)C1=C(C)NC2=C(C(=O)OC2)C1c1ccc2c(c1)OCO2 (stereo not drawn)
163 to 164 °C	N[C@H]1CC[C@@H](n2ccc(-c3ccc(F)cc3)c2-c2ccncc2)CC1
92 to 93 °C	CCCc1c2c(c(OC)c3c(=O)cc(C(=O)OC)oc13)CCCC2
174 to 176 °C	CC12CC(F)C3c4ccc(O)cc4CC(CCCCCN4CCCC4CSCCCC(F)(F)C(F)(F)F)C3C1CCC2O (stereo not drawn)
52 to 53 °C	CN(C)CCc1cccc(OCCCCN2C(=O)c3ccccc3C2=O)c1
184 to 190 °C	CN1C(=O)CN(NC(=O)CNC(=O)OCc2ccccc2)C(c2ccccc2)c2cc(Cl)ccc21 (stereo not drawn)

More lines, now with the values behind:

SMILES	melting point
CCCCC(=O)Nc1ccc(-c2cc3[nH]c(=O)[nH]c3nc2C)cc1	> 300 °C
COc1ccc(N(Cc2cc(C(C)(C)C)c(O)c(C(C)(C)C)c2)S(=O)(=O)c2cccs2)cn1	96 to 97 °C
Cc1nc(-c2ccccc2)cc(-c2ccc([N+](=O)[O-])cc2)c1C(=O)O	260 to 263 °C
CCCn1nnn(-c2ccc(N3CCN(c4ccc(OC)cc4)CC3)cc2)c1=O	190 °C
CCOC(=O)C1CSC(c2cc3cccc(NS(=O)(=O)c4cccs4)c3[nH]2)=N1 (stereo not drawn)	156 to 157 °C
CS(=O)(=O)c1ccc(-n2nc(C(=O)N3CCOCC3)cc2-c2ccc(-c3ccco3)cc2)cc1F	221 to 222 °C
Cc1oc(-c2cccs2)nc1CC#N	185 °C
COc1cc(-c2cc(-c3ccccc3)c(N3CCOCC3)s2)nc(OC)c1OC	124 °C
O=C(CCc1ccc(Cl)cc1Cl)NC1N=C(c2ccccc2)c2ccccc2-n2ccnc21 (stereo not drawn)	183 to 184 °C
CN(C(=O)OC(C)(C)C)c1cc(Oc2ccc(-c3nnn(C(c4ccccc4)(c4ccccc4)c4ccccc4)n3)cc2)ccc1[N+](=O)[O-]	161 to 163 °C
C=C(C)C(=O)Oc1ccc(S(=O)(=O)ON=C(C#N)c2cccs2)cc1	165 to 166 °C
Cn1c(C(F)(F)F)c([N+](=O)[O-])c2ccc(Cl)cc21	157 to 160 °C
Cc1ccccc1NC(=O)NC1N=C(c2ccccc2F)c2ccccc2N(CC(=O)N2CC3CCC(CC3)C2)C1=O (racemic)	167 to 172 °C
CCC(C(=O)O)N(C(=O)c1cn(-c2cc(C(F)(F)F)ccc2Cl)nc1C)c1ccc(OCC(C)(C)C)c(C#N)c1 (stereo not drawn)	134 to 135 °C
COc1cccc(O[C@@H]2COc3ccc(-c4ccc5cc(F)ccc5n4)cc3[C@@H]2O)c1 (relative stereo)	131 to 132 °C
Nc1cc(Cl)cc([N+](=O)[O-])c1C(=O)O	202 to 205 °C
CN(C)C=NCc1ccc2c(c1)Nc1nccnc1S2	218 to 219 °C
COc1cc2nc(N3CCN(c4nc5ccccc5[nH]4)CC3)nc(N)c2cc1OC	> 250 °C
CC(C)c1cccc(C(C)C)c1N1C(=O)c2ccc3c4cccc5c(C#CCCCCO)ccc(c6ccc(c2c36)C1=O)c54	> 300 °C
COC(=O)c1sc(C(=O)OC)c(OC)c1C	61 to 64 °C

SMILES	melting point
COC(CNc1nc(C)nc2cccc(C)c12)OC	48 to 49 °C
CCCc1[nH]c(C)c(C(C)=O)c1C	157 to 158 °C
CCc1ccc(-c2[nH]nc3c2C(=O)c2c(NC(C)=O)cccc2-3)cc1	294 °C
O=C(C=Cc1ccc(CNC2CC2)cc1)Nc1ccc(-c2ccc(Cl)cc2)cc1	222 to 223 °C
CCCCc1nc(C(O)C(C)(C)C)c(C(N)=O)n1Cc1ccc(-c2ccccc2-c2nnn[nH]2)cc1 (stereo not drawn)	157 to 160 °C
O=C1CCN(Cc2ccccc2[N+](=O)[O-])CC1C(c1ccc(F)cc1)c1ccc(F)cc1 (stereo not drawn)	151 to 152 °C
Cc1oc(-c2ccccc2)nc1CCc1ccc(C=CC=O)cc1	99 to 100 °C
Cc1nc(-c2cc3cc(OCCNC[C@@H](O)c4csc(C(F)(F)F)n4)ccc3o2)no1	143 to 146 °C
Cc1cc2c(c(C)c1SC#N)CCC(C)(C)O2	96 to 97 °C
CS(=O)(=O)C(=C1CN(C(c2ccccc2)c2ccccc2)C1)c1ccc(Cl)cc1	192 °C
COC(=O)c1ccccc1-c1cc(-c2cccc(C(F)(F)F)c2)no1	46 to 48 °C
CCOc1ccc2[nH]cc(/C(C#N)=C/c3cccnc3)c2c1	196 °C
Nc1ncc2ncn([C@H]3C=C[C@@H](O)C3)c2n1 (racemic)	144 to 147 °C
CN(C)Cc1cc(NC(=O)OC(C)(C)C)c(N)cc1-c1ccc(F)cc1	97 to 125 °C
NCCNc1cc(NCCO)c([N+](=O)[O-])c(NCCO)c1	220 °C
CON=C(c1ncon1)c1ccccc1COc1ccc(Cl)cc1	107 to 108 °C
COc1cc(-c2cccc(Cl)c2)c2cc(C(O)(c3ccc(Cl)cc3)c3nnc(S)n3C)ccc2n1 (stereo not drawn)	> 260 °C
CC(C)c1ccc(N(Cc2ccc(F)cc2)C(=O)Nc2c(C(C)C)cccc2C(C)C)cc1	80 °C
CC(=O)OCc1nnc(-c2ccc3occ(-c4cccc(OC(F)(F)F)c4)c3c2)o1	93 to 94 °C
